# Activity calls are given as the source filed them. No cut-off for these calls is given here.
# How the values were obtained:
# [1] = Binding affinity to CLPB (unknown origin) expressed in Escherichia coli MC4100 assessed as change in melting temperature at 100 to 200 uM after 30 mins by DSF analysis in presence of ATP
# [2] = Binding affinity to CLPB (unknown origin) expressed in Escherichia coli MC4100 assessed as change in melting temperature at 100 to 200 uM after 30 mins by DSF analysis
# [3] = Effect on ATPase activity of CLPB (unknown origin) expressed in Escherichia coli MC4100 using alpha-casein as substrate at 1 to 100 uM by spectrophotometric analysis
# [4] = Binding affinity to CLPB (unknown origin) expressed in Escherichia coli MC4100 assessed as change in melting temperature at 100 to 200 uM after 30 mins by DSF analysis in presence of ADP
# [5] = Effect on ATPase activity of CLPB (unknown origin) expressed in Escherichia coli MC4100 at 1 to 100 uM by spectrophotometric analysis
# [6] = Inhibition of DNAK (unknown origin) assessed as reactivation of luciferase aggregates after 2 hrs
# [7] = Inhibition of DNAK/CLPB (unknown origin) assessed as reactivation of malate dehydrogenase aggregates after 2 hrs
# [8] = Activation of CLPB (unknown origin) expressed in Escherichia coli MC4100 using alpha-casein as substrate at 1 to 100 uM by spectrophotometric analysis
# [9] = Binding affinity to CLPB (unknown origin) expressed in Escherichia coli MC4100 assessed as change in melting temperature at 100 to 200 uM after 30 mins by DSF analysis in presence of ATPgammaS
# [10] = Inhibition of DNAK/CLPB (unknown origin) assessed as reactivation of malate dehydrogenase aggregates after 2 hrs in presence of Tween 80
# [11] = Inhibition of DNAK (unknown origin) assessed as reactivation of luciferase aggregates after 2 hrs in presence of Tween 80
# [12] = Activation of CLPB (unknown origin) expressed in Escherichia coli MC4100 at 1 to 100 uM by spectrophotometric analysis
# Escherichia coli [13] = experiment: Antibacterial activity against Escherichia coli BL21(DE3) assessed as growth inhibition at 37 degC after 24 hrs by two-fold dilution method; format: functional
# [14] = Inhibition of CLPB (unknown origin) expressed in Escherichia coli MC4100 using alpha-casein as substrate at 1 to 100 uM by spectrophotometric analysis
# [15] = Inhibition of CLPB (unknown origin) expressed in Escherichia coli MC4100 at 1 to 100 uM by spectrophotometric analysis
# [16] = Binding affinity to CLPB E276A/E678A mutant (unknown origin)-alpha-casein complex expressed in Escherichia coli MC4100 at 0.1 to 1000 uM by titrimetric analysis
# Escherichia coli [17] = experiment: Antibacterial activity against Escherichia coli MC4100 assessed as reduction of CFU count at 300 uM at 37 degC after 24 hrs by two-fold dilution method in presence of paraquat; format: functional
# [18] = Inhibition of ATPase activity of CLPB (unknown origin) expressed in Escherichia coli MC4100 using 20 to 100 uM alpha-casein as substrate at 1 to 100 uM by spectrophotometric analysis
# [19] = Inhibition of ATPase activity of CLPB (unknown origin) expressed in Escherichia coli MC4100 using 10 uM alpha-casein as substrate at 1 to 100 uM by spectrophotometric analysis
# Escherichia coli [20] = experiment: Antibacterial activity against CLPB-deleted Escherichia coli MC4100 assessed as growth inhibition at 37 degC after 24 hrs by two-fold dilution method; format: functional, organism-based
# [21] = Binding affinity to CLPB E276A/E678A mutant (unknown origin) expressed in Escherichia coli MC4100 at 100 uM in presence of alpha-casein by spectrofluorimetric analysis
# [22] = Binding affinity to CLPB E276A/E678A mutant (unknown origin) expressed in Escherichia coli MC4100 assessed as change in melting temperature by DSF analysis
# Escherichia coli [23] = experiment: Antibacterial activity against CLPB-deleted Escherichia coli MC4100 assessed as reduction of CFU count at 300 uM at 37 degC after 24 hrs by two-fold dilution method; format: functional, organism-based
# Escherichia coli [24] = experiment: Antibacterial activity against TolC-deleted Escherichia coli JLS1015 at 37 to 47 degC after 7 hrs by two-fold dilution method; format: functional; conditions: JLS1015, 7 h
# Escherichia coli [25] = experiment: Antibacterial activity against CLPB-deleted Escherichia coli MC4100 assessed as growth inhibition at 0.1 to 1000 uM at 37 to 47 degC after 24 hrs by two-fold dilution method in presence of paraquat; format: functional, organism-based
# Escherichia coli [26] = experiment: Antibacterial activity against Escherichia coli MC4100 assessed as growth inhibition at 37 degC after 24 hrs by two-fold dilution method; format: functional, organism-based
# Escherichia coli [27] = experiment: Antibacterial activity against Escherichia coli BL21(DE3) assessed as growth inhibition at 0.1 to 1000 uM at 37 to 47 degC after 24 hrs by two-fold dilution method in presence of paraquat; format: functional
# Escherichia coli [28] = experiment: Antibacterial activity against Escherichia coli MC4100 assessed as growth inhibition at 42 degC after 24 hrs by two-fold dilution method in presence of paraquat; format: functional; conditions: MC4100, 24 h
# [29] = Binding affinity to CLPB (unknown origin) expressed in Escherichia coli MC4100 up to 400 seconds by surface plasmon resonance analysis
# Escherichia coli [30] = experiment: Antibacterial activity against Escherichia coli BL21(DE3) assessed as growth inhibition at 42 degC after 24 hrs by two-fold dilution method in presence of paraquat; format: functional
# [31] = Cytotoxicity against CHO cells assessed as cell viability at 40 to 100 uM after 72 hrs by tetrazolium reduction assay relative to control; format: cell-based, Cricetulus griseus; conditions: chinese hamster, read-out: Activity
# [32] = Cytotoxicity against human HeLa cells assessed as cell viability at 40 to 100 uM after 72 hrs by tetrazolium reduction assay relative to control; format: cell-based; conditions: read-out: Activity
# Escherichia coli [33] = experiment: Antibacterial activity against CLPB-deleted Escherichia coli MC4100 assessed as reduction of CFU count at 300 uM at 37 degC after 24 hrs by two-fold dilution method in presence of paraquat; format: functional, organism-based
# Escherichia coli [34] = experiment: Antibacterial activity against Escherichia coli MC4100 assessed as reduction of CFU count at 300 uM at 42 degC after 24 hrs by two-fold dilution method; format: functional
# Escherichia coli [35] = experiment: Antibacterial activity against Escherichia coli MC4100 assessed as growth inhibition at 0.1 to 1000 uM at 37 to 47 degC after 24 hrs by two-fold dilution method in presence of paraquat; format: functional, organism-based
# [36] = Binding affinity to CLPB E276A/E678A mutant (unknown origin) expressed in Escherichia coli MC4100 at 80 uM in presence of alpha-casein by spectrofluorimetric analysis
# [37] = Reduction of ATPase activity of DNAK (unknown origin) at 100 uM by spectrophotometric analysis
# [38] = Reduction of ATPase activity of DNAK (unknown origin) using ALLQSRLLLSAPRRAAATARY as substrate at 100 uM by spectrophotometric analysis relative to control in presence of cochaperone GrpE
# [39] = Reduction of ATPase activity of DNAK (unknown origin) using ALLQSRLLLSAPRRAAATARY as substrate at 100 uM by spectrophotometric analysis relative to control in presence of cochaperone DnaJ
# [40] = Binding affinity to CLPB hexamer (unknown origin) expressed in Escherichia coli MC4100 at 100 uM by sedimentation equilibrium analysis
# [41] = Effect on ATPase activity of DNAK (unknown origin) using ALLQSRLLLSAPRRAAATARY as substrate at 100 uM by spectrofluorimetric analysis
compound,measurement,setting,value
Cc1c(Cl)c([N+](=O)[O-])nn1CC(=O)Nc1cc(Oc2ccc(Cl)cc2Cl)cc([N+](=O)[O-])c1,ΔTm,[1],2 °C
same,ΔTm,[2],14.3 °C
same,Activity,[3],inactive
same,ΔTm,[4],0.7 °C
same,Activity,[5],inactive
same,IC50,[6],> 100 µM
same,IC50,[7],> 100 µM
COc1cc(/C=C2/C(=O)NN(c3ccc(Cl)cc3)C2=O)ccc1OCc1ccc(F)cc1,ΔTm,[1],1.2 °C
same,Activity,[8],Active
same,ΔTm,[9],7.1 °C
same,ΔTm,[2],1 °C
same,ΔTm,[4],0.7 °C
same,IC50,[10],11 µM
same,IC50,[6],> 100 µM
same,IC50,[11],> 100 µM
same,IC50,[7],7.5 µM
same,Activity,[12],Active
CC1(C)S[C@@H]2[C@H](NC(=O)[C@H](N)c3ccccc3)C(=O)N2[C@H]1C(=O)O [AMPICILLIN],MIC,Escherichia coli [13],2 µM
CCn1c(=O)c(C(=O)Nc2cccc(O)c2)c(O)c2ccccc21,ΔTm,[1],2.2 °C
same,ΔTm,[9],-0.8 °C
same,ΔTm,[2],-0.8 °C
same,inhibition,[14],Active
same,inhibition,[15],Active
same,ΔTm,[4],1.5 °C
same,IC50,[10],40 µM
same,Activity,[16],inactive
same,IC50,[6],> 100 µM
same,IC50,[11],> 100 µM
same,IC50,[7],65 µM
O=C(Nc1ccccc1)OCCSC(=O)Nc1ccc(Cl)c(Cl)c1,log10cfu,Escherichia coli [17],2
same,inhibition,[18],inactive
same,ΔTm,[1],0.8 °C
same,inhibition,[19],Active
same,growth inhibition (GI),Escherichia coli [20],Active
same,ΔTm,[9],2 °C
same,ΔTm,[2],1.5 °C
same,Activity,[21],Active
same,Kd,[22],23 µM
same,ΔTm,[4],0.8 °C
same,Activity,Escherichia coli [23],inactive
same,MIC,Escherichia coli [24],5 µM
same,growth inhibition (GI),Escherichia coli [25],inactive
same,growth inhibition (GI),Escherichia coli [26],Active
same,IC50,[10],15 µM
same,growth inhibition (GI),Escherichia coli [27],Active
same,Activity,[16],inactive
same,MIC,Escherichia coli [28],60 µM
same,Kd,[29],19 µM
same,IC50,[6],> 100 µM
same,MIC,Escherichia coli [30],60 µM
same,IC50,[11],> 100 µM
same,"viability at 72 h, up to 100 µM",[31],50%
same,IC50,[7],20 µM
same,"viability at 72 h, up to 100 µM",[32],50%
same,Activity,Escherichia coli [33],inactive
same,log10cfu,Escherichia coli [34],2
same,growth inhibition (GI),Escherichia coli [35],Active
O=Cc1cc(Cc2ccccc2Cl)cc([N+](=O)[O-])c1O,log10cfu,Escherichia coli [17],2
same,inhibition,[18],Active
same,ΔTm,[1],7.2 °C
same,inhibition,[19],Active
same,growth inhibition (GI),Escherichia coli [20],Active
same,ΔTm,[9],4.9 °C
same,Activity,[36],Active
same,ΔTm,[2],8.1 °C
same,Activity,[37],Active
same,Kd,[22],12 µM
same,ΔTm,[4],6.7 °C
same,fold change (FC),[38],7
same,fold change (FC),[39],7
same,Activity,Escherichia coli [23],inactive
same,Activity,[40],Active
same,MIC,Escherichia coli [24],5 µM
same,growth inhibition (GI),Escherichia coli [25],inactive
same,growth inhibition (GI),Escherichia coli [26],Active
same,IC50,[10],6 µM
same,growth inhibition (GI),Escherichia coli [27],Active
same,Activity,[16],Active
same,MIC,Escherichia coli [28],60 µM
same,Kd,[29],12.9 µM
same,IC50,[6],4 µM
same,MIC,Escherichia coli [30],60 µM
same,IC50,[11],6 µM
same,"viability at 72 h, up to 100 µM",[31],50%
same,IC50,[7],7 µM
same,"viability at 72 h, up to 100 µM",[32],50%
same,Activity,Escherichia coli [33],inactive
same,log10cfu,Escherichia coli [34],2
same,Activity,[41],inactive
same,growth inhibition (GI),Escherichia coli [35],Active
O=C1Nc2ccc([N+](=O)[O-])cc2/C1=C1\SC(=O)N(c2ccc(Cl)cc2)C1=O,Activity,[8],Active
same,ΔTm,[9],12.3 °C
same,ΔTm,[2],> 40 °C
same,IC50,[10],6 µM
same,IC50,[6],40 µM
same,IC50,[11],60 µM
same,IC50,[7],10 µM
same,Activity,[12],Active
COCCCN1C(=O)C(=C2C(=O)Nc3ccc(Br)cc32)SC1=S,ΔTm,[1],13.1 °C
same,ΔTm,[9],14.3 °C
same,ΔTm,[2],8.4 °C
same,Activity,[3],inactive
same,ΔTm,[4],9.4 °C
same,Activity,[5],inactive
same,IC50,[7],> 100 µM
O=C(Nc1cccc([N+](=O)[O-])c1)c1sc2cccc(Cl)c2c1Cl,ΔTm,[1],1.8 °C
same,ΔTm,[9],4.2 °C
same,ΔTm,[2],0.8 °C
same,Activity,[3],inactive
same,ΔTm,[4],5.2 °C
same,Activity,[5],inactive
same,IC50,[6],> 100 µM
same,IC50,[7],90 µM
CC(C)[C@H](C(=O)O)N1C(=O)/C(=C2/C(=O)Nc3ccc(Br)cc32)SC1=S,ΔTm,[1],22.1 °C
same,ΔTm,[9],19.3 °C
same,ΔTm,[2],24.2 °C
same,Activity,[3],inactive
same,ΔTm,[4],19.9 °C
same,Activity,[5],inactive
same,IC50,[7],> 100 µM
C(=C\C=C\Nc1ccccc1)/C=C/Nc1ccccc1,ΔTm,[1],11.9 °C
same,Activity,[8],Active
same,ΔTm,[9],13.3 °C
same,ΔTm,[2],17.5 °C
same,ΔTm,[4],12.3 °C
same,IC50,[6],100 µM
same,IC50,[7],> 100 µM
same,Activity,[12],Active
O=C1Nc2ccc(Br)cc2/C1=C1/SC(=O)N(c2ccccc2)C1=O,ΔTm,[1],-0.2 °C
same,Activity,[8],Active
same,ΔTm,[9],14.6 °C
same,ΔTm,[2],18.1 °C
same,ΔTm,[4],-0.7 °C
same,IC50,[10],15 µM
same,IC50,[6],85 µM
same,IC50,[11],50 µM
same,IC50,[7],30 µM
same,Activity,[12],Active
C=CCN1C(=O)C(=C2C(=O)Nc3ccccc32)SC1=S,ΔTm,[1],7.9 °C
same,ΔTm,[9],5.4 °C
same,ΔTm,[2],9 °C
same,Activity,[3],inactive
same,ΔTm,[4],7.6 °C
same,IC50,[10],> 100 µM
same,Activity,[5],inactive
same,IC50,[6],> 100 µM
same,IC50,[11],> 100 µM
same,IC50,[7],> 100 µM

# — ChEMBL document CHEMBL2424520, “Screening and evaluation of small organic molecules as ClpB inhibitors and potential antimicrobials” (J Med Chem, 2013)
